Data as given in US9926276B2, “Substituted benzamides with activity towards EP4 receptors” (DRACONIS PHARMA, S.L., priority 2013, dated 2018).

Target: T1, human EP4 receptor (Homo sapiens, UniProt P35408)
Assay: Measurement of cAMP responses by Homogeneous Time Resolved Fluorescence (Test 2)
Type: cell-based
Parameters: expressed in transfected cells
Settings: at 10 μM; PGE2 1 nM, HEK-293 cells stably expressing human EP4
Protocol: Test 2: Measurement of cAMP Responses by Homogeneous Time Resolved Fluorescence
cAMP measurements on HEK-293 cells that stably expressed human EP4 receptors were performed by using a system based on Homogeneous Time Resolved Fluorescense (HTRF). This technology allows the direct measurement of cAMP in living cells. The principle of this assay is based on competition between cAMP produced by cells and cAMP-d2 conjugate for the binding with monoclonal anti-cAMP-cryptate conjugate. The HTRF cAMP kit from CisBio was used according to the manufacturer's directions. The experimental procedure was performed as stated below.
Suspended cells (30,000 cells per well) were added to 96-well culture plates in 30 μl of Optimem supplemented with 500 μM IBMX. Compounds were then added in 10 μl of stimulation buffer and incubated at 25° C. for 30 minutes followed by 10 μl of PGE2 to a final concentration of 1 nM. After 30 minutes at 25° C., the reaction was stopped lysing the cells with a mixture of 25 μl of cryptate and 25 μl of cAMP-d2 prepared in the lysis buffer supplied by the manufacturer. Plates were incubated for an additional hour at room temperature and read at 665 nm/620 nm using an UltraEvolution Plate reader (Tecan).
Antagonist percentage inhibition was calculated relating compounds activity to the 0% inhibition of the wells incubated with 1 nM PGE2 alone and 100% inhibition of the wells incubated with 1 nM PGE2 plus 1 μM of the reference antagonist.

T1 sequence (P35408 whole entry): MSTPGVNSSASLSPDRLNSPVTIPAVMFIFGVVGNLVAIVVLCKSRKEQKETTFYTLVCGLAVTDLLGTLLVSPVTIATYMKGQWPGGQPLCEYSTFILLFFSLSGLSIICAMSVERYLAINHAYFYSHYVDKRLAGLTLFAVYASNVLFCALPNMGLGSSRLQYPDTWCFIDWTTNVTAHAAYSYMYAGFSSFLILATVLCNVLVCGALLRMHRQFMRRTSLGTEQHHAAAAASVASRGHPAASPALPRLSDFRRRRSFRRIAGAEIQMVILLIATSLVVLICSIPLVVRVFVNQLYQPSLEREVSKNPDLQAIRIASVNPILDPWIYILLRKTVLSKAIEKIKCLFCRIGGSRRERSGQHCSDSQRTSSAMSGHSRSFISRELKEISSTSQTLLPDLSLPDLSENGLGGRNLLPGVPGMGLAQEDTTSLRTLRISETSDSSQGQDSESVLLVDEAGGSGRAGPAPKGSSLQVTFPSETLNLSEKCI

| SMILES | Results of Test 2 (Functional assay, antagonist % inh) |
| --- | --- |
| COc1cccc(-c2ccc(Cl)c(C(=O)Nc3c(C)cc(C(=O)O)cc3C)c2)c1 [Example 1, 4-(4-Chloro-3′-methoxybiphenyl-3-ylcarboxamido)-3,5-dimethylbenzoic acid] | $ (% inh >75) |
| Cc1cc(C(=O)O)cc(C)c1NC(=O)c1cc(-c2cccc(CO)c2)ccc1Cl [Example 2, 4-(4-Chloro-3′-(hydroxymethyl)biphenyl-3-ylcarboxamido)-3,5-dimethylbenzoic acid] | $ (% inh >75) |
| COc1cccc(-c2ccc(C)c(C(=O)Nc3c(C)cc(C(=O)O)cc3C)c2)c1 [Example 3, 4-(3′-Methoxy-4-methylbiphenyl-3-ylcarboxamido)-3,5-dimethylbenzoic acid] | $ (% inh >75) |

Target: T1, human EP4 receptor
Assay: Human EP4 receptor radioligand binding assay (Test 1)
Parameters: expressed in transfected cells; host or cells: HEK-293 cell membranes
Settings: [3H]-PGE2 1 nM, transfected HEK-293 cell membranes, read-out: Results of Test 1 (Binding assay, % inh)
Protocol: Test 1: Human EP4 Receptor Radioligand Binding Assay
To investigate binding properties of EP4 receptor ligands to human EP4 receptor, transfected HEK-293 cell membranes and [3H]-PGE2 (Perkin Elmer) were used. In 96-well plates the assay was carried out with a total reaction volume of 250 μl, containing 25 μl of membrane suspension (30 μg protein/well), 25 μl of [3H]-PGE2 (1 nM) in either absence or presence of 25 μl of either buffer or PGE2 (10 μM) for total and non-specific binding, respectively. Binding buffer contained 25 mM MES, 10 mM MgCl2 and 1 mM EDTA at pH 6.0. Plates were incubated at 25° C. for 120 minutes. After the incubation period, 200 μl of incubate were transferred to MultiScreen HTS, FB plates (Millipore), filtered and plates were washed 6 times with ice-cold 10 mM MES, 0.01% BSA at pH 6.0. Filters were dried and counted in a MicroBeta scintillation counter (Perkin-Elmer) using EcoScint liquid scintillation cocktail.
Percentage inhibition was calculated relating compounds activity to the 0% inhibition of the wells incubated with 1 nM [3H]-PGE2 alone (total binding) and 100% inhibition of the wells incubated with 1 nM [3H]-PGE2 plus 10 μM PGE2 (non-specific binding).

| SMILES | inhibition at 10 µM [%] |
| --- | --- |
| CC(C)COc1ccc(Cl)c(C(=O)Nc2ccc(C(=O)O)cc2Cl)c1 [Example 26, 3-Chloro-4-(2-chloro-5-isobutoxybenzamido)benzoic acid] | > 75 |
| Cc1cc(C(=O)O)cc(Cl)c1NC(=O)c1cc(OCC(C)C)ccc1Cl [Example 27, 3-Chloro-4-(2-chloro-5-isobutoxybenzamido)-5-methylbenzoic acid] | > 75 |
| COc1cc(C(=O)O)ccc1NC(=O)c1cc(OCC(C)C)ccc1Cl [Example 28, 4-(2-Chloro-5-isobutoxybenzamido)-3-methoxybenzoic acid] | > 75 |
| O=C(O)c1cc(Cl)c(NC(=O)c2cc(OCc3ccccc3)ccc2Cl)c(Cl)c1 [Example 29, 4-(5-(Benzyloxy)-2-chlorobenzamido)-3,5-dichlorobenzoic acid] | > 75 |
| CC(C)Oc1ccc(Cl)c(C(=O)Nc2c(Cl)cc(C(=O)O)cc2Cl)c1 [Example 30, 3,5-Dichloro-4-(2-chloro-5-isopropoxybenzamido)benzoic acid] | > 75 |
| COc1ccc(Cl)c(C(=O)Nc2c(Cl)cc(C(=O)O)cc2Cl)c1 [Example 31, 3,5-Dichloro-4-(2-chloro-5-methoxybenzamido)benzoic acid] | > 75 |
| O=C(O)c1cc(Cl)c(NC(=O)c2cc(OCC3CCC3)ccc2Cl)c(Cl)c1 [Example 32, 3,5-Dichloro-4-(2-chloro-5-(cyclobutylmethoxy)benzamido)benzoic acid] | > 75 |
| CCOc1ccc(Cl)c(C(=O)Nc2c(Cl)cc(C(=O)O)cc2Cl)c1 [Example 33, 3,5-Dichloro-4-(2-chloro-5-ethoxybenzamido)benzoic acid] | > 75 |
| CC(C)(C)COc1ccc(Cl)c(C(=O)Nc2c(Cl)cc(C(=O)O)cc2Cl)c1 [Example 34, 3,5-Dichloro-4-(2-chloro-5-(neopentyloxy)benzamido)benzoic acid] | > 75 |
| O=C(Nc1c(F)c(F)c(C(=O)O)c(F)c1F)c1cc(OCc2ccc(F)cc2F)ccc1Cl [Example 37, 4-(2-Chloro-5-(2,4-difluorobenzyloxy)benzamido)-2,3,5,6-tetrafluorobenzoic acid] | 45 to 75 |
| Cc1ccc(C(=O)O)cc1NC(=O)c1cc(-c2nccc(C(F)(F)F)n2)ccc1Cl [Example 43, 3-(2-Chloro-5-(4-(trifluoromethyl)pyrimidin-2-yl)benzamido)-4-methylbenzoic acid] | > 75 |
| Cc1ccc(C(=O)O)cc1NC(=O)c1cc(OCC(C)C)ccc1Cl [Example 44, 3-(2-Chloro-5-isobutoxybenzamido)-4-methylbenzoic acid] | > 75 |
| CC(C)COc1ccc(Cl)c(C(=O)Nc2c(Cl)cc(C(=O)O)cc2Cl)n1 [Example 49, 3,5-Dichloro-4-(3-chloro-6-isobutoxypicolinamido)benzoic acid] | > 75 |
| O=C(O)c1cc(Cl)c(NC(=O)c2nc(NCC3CC3)ccc2Cl)c(Cl)c1 [Example 50, 3,5-Dichloro-4-(3-chloro-6-(cyclopropylmethylamino)picolinamido)benzoic acid] | > 75 |
| O=C(O)c1cc(Cl)c(NC(=O)c2nc(NC3CCCC3)ccc2Cl)c(Cl)c1 [Example 51, 3,5-Dichloro-4-(3-chloro-6-(cyclopentylamino)picolinamido)benzoic acid] | > 75 |
| COCCN(C)c1ccc(Cl)c(C(=O)Nc2c(Cl)cc(C(=O)O)cc2Cl)n1 [Example 53, 3,5-Dichloro-4-(3-chloro-6-((2-methoxyethyl)(methyl)amino)-picolinamido)benzoic acid] | > 75 |
| CCCCN(C)c1ccc(Cl)c(C(=O)Nc2c(Cl)cc(C(=O)O)cc2Cl)n1 [Example 54, 4-(6-(Butyl(methyl)amino)-3-chloropicolinamido)-3,5-dichlorobenzoic acid] | > 75 |
| CCN(CC)c1ccc(Cl)c(C(=O)Nc2c(Cl)cc(C(=O)O)cc2Cl)n1 [Example 55, 3,5-Dichloro-4-(3-chloro-6-(diethylamino)picolinamido)benzoic acid] | > 75 |
| CCCNc1ccc(Cl)c(C(=O)Nc2c(Cl)cc(C(=O)O)cc2Cl)n1 [Example 56, 3,5-Dichloro-4-(3-chloro-6-(propylamino)picolinamido)benzoic acid] | > 75 |
| Cc1ccc(CC2CCCCC2)cc1C(=O)Nc1c(Cl)cc(C(=O)O)cc1Cl [Example 61, 3,5-Dichloro-4-(5-(cyclohexylmethyl)-2-methylbenzamido)benzoic acid] | > 75 |
| O=C(O)c1cc(Cl)c(NC(=O)c2cc(Cc3ccccc3)ccc2Cl)c(Cl)c1 [Example 62, 4-(5-Benzyl-2-chlorobenzamido)-3,5-dichlorobenzoic acid] | > 75 |
| CC(C)Cc1ccc(Cl)c(C(=O)Nc2c(Cl)cc(C(=O)O)cc2Cl)c1 [Example 63, 3,5-Dichloro-4-(2-chloro-5-isobutylbenzamido)-benzoic acid] | > 75 |
| CCN(C(=O)c1cc(OCC(C)C)ccc1Cl)c1c(Cl)cc(C(=O)O)cc1Cl [Example 66, 3,5-Dichloro-4-(2-chloro-5-isobutoxy-N-ethylbenzamido)benzoic acid] | > 75 |
| CC(C)COc1ccc(Cl)c(C(=O)N(CC(C)C)c2c(Cl)cc(C(=O)O)cc2Cl)c1 [Example 67, 3,5-Dichloro-4-(2-chloro-5-isobutoxy-N-isobutylbenzamido)benzoic acid] | > 75 |
| CCN(C(=O)c1cc(OCc2ccc(F)cc2F)ccc1Cl)c1c(Cl)cc(C(=O)O)cc1Cl [Example 69, 3,5-Dichloro-4-(2-chloro-5-(2,4-difluorobenzyloxy)-N-ethylbenzamido)benzoic acid] | > 75 |
| CCN(C(=O)c1cc(OCc2ccc(Cl)cc2F)ccc1Cl)c1c(Cl)cc(C(=O)O)cc1Cl [Example 70, 3,5-Dichloro-4-(2-chloro-5-(4-chloro-2-fluorobenzyloxy)-N-ethylbenzamido)benzoic acid] | > 75 |
| Cc1ccc(C(=O)O)cc1NC(=O)c1cc(OCc2ccccc2)ccc1Cl [Example 71, Sodium 3-(5-(benzyloxy)-2-chlorobenzamido)-4-methylbenzoate] | > 75 |

Same assay, conditions: at 10 μM; [3H]-PGE2 1 nM, transfected HEK-293 cell membranes

| SMILES | Results of Test 1 (Binding assay, % inh) |
| --- | --- |
| COc1cccc(-c2ccc(Cl)c(C(=O)Nc3c(C)cc(C(=O)O)cc3C)c2)c1 [Example 1, 4-(4-Chloro-3′-methoxybiphenyl-3-ylcarboxamido)-3,5-dimethylbenzoic acid] | # (% inh >75) |
| Cc1cc(C(=O)O)cc(C)c1NC(=O)c1cc(-c2cccc(CO)c2)ccc1Cl [Example 2, 4-(4-Chloro-3′-(hydroxymethyl)biphenyl-3-ylcarboxamido)-3,5-dimethylbenzoic acid] | # (% inh >75) |
| COc1cccc(-c2ccc(C)c(C(=O)Nc3c(C)cc(C(=O)O)cc3C)c2)c1 [Example 3, 4-(3′-Methoxy-4-methylbiphenyl-3-ylcarboxamido)-3,5-dimethylbenzoic acid] | # (% inh >75) |
| Cc1c(NC(=O)c2cc(-c3cccc(Cl)c3)ccc2Cl)cccc1C(=O)O [Example 39, 3-(3′,4-Dichlorobiphenyl-3-ylcarboxamido)-2-methylbenzoic acid] | # (% inh >75) |
| Cc1ccc(C(=O)O)cc1NC(=O)c1cc(-c2cccc(Cl)c2)ccc1Cl [Example 40, 3-(3′,4-Dichlorobiphenyl-3-ylcarboxamido)-4-methylbenzoic acid] | # (% inh >75) |
| O=C(O)c1ccc(Cl)c(NC(=O)c2cc(-c3cccc(Cl)c3)ccc2Cl)c1 [Example 41, 4-Chloro-3-(3′,4-dichlorobiphenyl-3-ylcarboxamido)benzoic acid] | # (% inh >75) |
